In experiment [1] the target is T1, hP2X3 (Homo sapiens, UniProt P56373).
T1 construct: host or cells: HEK (hP2X3-HEK)
T1 sequence (P56373 1-397): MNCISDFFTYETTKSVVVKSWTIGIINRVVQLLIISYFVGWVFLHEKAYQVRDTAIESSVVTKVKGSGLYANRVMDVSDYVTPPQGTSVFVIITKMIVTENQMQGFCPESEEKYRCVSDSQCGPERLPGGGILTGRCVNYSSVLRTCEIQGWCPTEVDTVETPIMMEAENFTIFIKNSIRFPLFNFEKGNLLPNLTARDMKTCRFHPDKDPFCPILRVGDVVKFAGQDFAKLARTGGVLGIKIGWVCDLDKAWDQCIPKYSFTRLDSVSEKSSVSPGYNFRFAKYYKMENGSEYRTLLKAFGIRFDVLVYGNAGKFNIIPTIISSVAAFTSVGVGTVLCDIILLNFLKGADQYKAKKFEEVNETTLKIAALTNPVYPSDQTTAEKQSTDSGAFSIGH
Description: FLIPR intracellular calcium assay, hP2X3. As to conditions: human P2X3-HEK cells, agonist at EC75. It is filed as cell-based. An excerpt: (§1) The FLIPR® assay utilizes cells which express human or rat P2X3 or P2X2/3 receptors. Recombinant cells expressing hP2X3 (Cat #6188) and hP2X2/3 (Cat #6179) were procured from Chantest Corp. Rat P2X2 (NCBI Accession No: U14414) was amplified by PCR from PC12 cDNA (a rat adrenal medulla cell line). The PCR product obtained containing the protein coding sequence of rat P2X2 was cloned into EcoRV-digested and dephosphorylated vector plRES-puro3 within the multiple cloning site (MCS). See, FIG. 1A.
(§2) (i) Intracellular Calcium Assay Protocol for Screening Compounds
(§3) Cryo-vial containing 6×10^6 cells (human P2X3-HEK/human P2X2/3-TRex293/rat P2X2/3-TRex293/rat P2X3 TRex-CHO) was thawed in a 37° C. water bath. Cells were suspended in 20 mL of respective cell plating media (See annexure for composition) in a 50 mL centrifuge tube. The cell viability was checked with the help of Trypan Blue dye. Upon washing, cells were plated in a black 384-well clear bottomed, sterile poly-D-lysine coated plate such that, each well contained 10,000 cells (15,000/well for hP2X3) in 30 μL cell plating media. The plate was incubated in a 5% CO2 incubator at 37° C. for 24 h.
(§4) The next day, prior to the assay, the cell plating media was removed from each well by decanting and gentle tapping. Thirty μL of FLIPR Calcium 4 dye solution was added to each well. The plate was incubated at 37° C. for 45 min (60 min for hP2X3). The plate was next equilibrated at room temperature for 15 minutes before placing it in a 384 well FLIPR for the assay.
(§5) Compounds were dissolved in DMSO and serially diluted following 11 point half log (3.16 fold) dilution with a starting concentration of 2 mM. Dilutions were mixed with assay buffer just before performing the assay.
(§6) Compounds were added to the respective wells of the assay-ready cell plate with the help of the FLIPR and fluorescence readings were captured for 5 min to observe any possible agonistic property of the compounds. The plate was then incubated at room temperature for 15 min. The cells were stimulated with respective agonist EC75 concentration and the fluorescence readings were captured for another 5 min by FLIPR. The difference in fluorescence readings in presence of the compounds were compared with that of the control wells (wells having no compound) to calculate the inhibitory potency of the compounds. The IC50 values of the compounds were determined using the Graph pad Prism software.
(§7) (ii) Cell Plating Media for hP2X3-HEK and hP2X2/3-TRex293 Cells • DMEM/F12 (1:1) HAM media (Invitrogen; Cat #11039) • 1×NEAA (Invitrogen; Cat #11140) • 25 mM HEPES (Invitrogen; Cat #15630) • 1 mM sodium pyruvate (Invitrogen; Cat #11360) • 10% tetracycline negative FBS (PAA; Cat #A15-209) • 1 μg/mL doxycycline (Clontech; Cat #63131) [for hP2X2/3-TRex293 cells only]
(§8) (v) Assay Buffer Composition • HBSS (Invitrogen Cat #14025) • 20 mM HEPES (Invitrogen Cat #15630) • 0.01% F127 (Sigma Cat #P2443) • 1.8 mM CaCl2 (Sigma Cat #C5080) • pH adjusted to 7.4
(§9) (vi) Dye Solution Composition • 1× FLIPR Calcium 4 dye in assay buffer (Molecular devices Cat #R8141) • 1.8 mM Probenecid (Sigma Cat #P8761) • pH adjusted to 7.4

For experiment [2], the target named is T2, hP2X2/3 (Homo sapiens, UniProt P56373+Q9UBL9).
T2 construct: host or cells: TRex293 (hP2X2/3-TRex293), doxycycline-induced
T2 sequence (P56373 1-397): T1 sequence (P56373 1-397)
T2 sequence (Q9UBL9 1-471): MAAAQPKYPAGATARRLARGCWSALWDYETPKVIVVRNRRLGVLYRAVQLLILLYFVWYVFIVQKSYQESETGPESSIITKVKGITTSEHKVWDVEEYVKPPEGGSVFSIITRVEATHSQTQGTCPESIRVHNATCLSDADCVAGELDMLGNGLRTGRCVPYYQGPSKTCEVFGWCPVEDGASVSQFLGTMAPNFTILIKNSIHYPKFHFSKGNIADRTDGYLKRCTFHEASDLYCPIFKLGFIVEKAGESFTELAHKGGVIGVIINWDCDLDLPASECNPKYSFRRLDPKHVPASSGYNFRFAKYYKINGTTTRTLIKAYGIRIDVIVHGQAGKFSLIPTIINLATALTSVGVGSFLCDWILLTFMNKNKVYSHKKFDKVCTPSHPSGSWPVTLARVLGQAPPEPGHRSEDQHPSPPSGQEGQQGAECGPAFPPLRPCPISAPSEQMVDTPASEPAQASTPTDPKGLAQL
Description: FLIPR intracellular calcium assay, hP2X2/3. It is filed as cell-based. The conditions noted are these: human P2X2/3-TRex293 cells, agonist at EC75.
Description: as §1, §2, §3, §4, §5, §6, §7, §8, §9
In general terms: A change in cytosolic calcium serves as a functional read-out for many receptors and channels.

Each structure is given as a SMILES string. “And” between values parts separate entries of the source, which are not always exact repeats. Equal entries are not always repeated. Where only a bound is given, the exact number is not on record here.

In patent publication US11339169B2, “P2X3 and/or P2X2/3 compounds and methods” (Asana BioSciences, LLC, priority 2016, dated 2022) one finds IC50 data, which are given here for 29 compounds.

As for `CC(=O)N1CCN(c2nc(N[C@@H](c3cnc4ccccc4c3)C3CC3)c3c(cnn3C(C)C(C)C)n2)CC1` (stereo partly shown) [Example 62], the concentration for half-maximal inhibition (IC50) (commonly the point on the concentration scale where inhibition reaches its midpoint) in experiment [1] lay in the range of 1 to 100 nM; in experiment [2] it was 100 to 1000 nM.
As for `CCC(CC)n1ncc2nc(N3CCN(C(N)=O)CC3)nc(NCc3cnc4ccccc4c3)c21` [Example 64], the IC50 in experiment [1] was in the range of 1 to 100 nM; in experiment [2], 1000 to 10000 nM.
As for `CCC(CC)n1ncc2nc(N3CCN(C(C)=O)CC3)nc(NC(c3cnc4ccc(F)cc4c3)C3CC3)c21` (stereo not shown) [Example 65], the half-inhibitory concentration (IC50) lay in the range of 1 to 100 nM in experiment [1] and 100 to 1000 nM in experiment [2].
For `CC(C)n1ncc2nc(N3CCN(C(N)=O)CC3)nc(N[C@@H](c3cnc4ccccc4c3)C3CC3)c21` [Example 66], in that order: 1 to 100 nM and 100 to 1000 nM.
As for `CC[C@H](C)n1ncc2nc(N3CCN(C(N)=O)CC3)nc(NC(C)c3cnc4cc(F)c(F)cc4c3)c21` (stereo partly shown) [Example 68], the IC50 fell in the range of 1 to 100 nM in experiment [1] and 100 to 1000 nM in experiment [2].
Take `CC[C@H](C)n1ncc2nc(N3CCN(C(N)=O)CC3)nc(N[C@@H](c3cnc4ccccc4c3)C3CC3)c21` [Example 69]: the half-maximal inhibitory concentration (IC50) in experiment [1] and in experiment [2] was 1 to 100 nM throughout.
As for `CC[C@@H](C)n1ncc2nc(N3CCN(C(N)=O)CC3)nc(N[C@@H](c3cnc4ccccc4c3)C3CC3)c21` [Example 70], the IC50 in experiment [1] and in experiment [2] was 1 to 100 nM throughout.
For the compound `NC(=O)N1CCN(c2nc(N[C@@H](c3cnc4ccccc4c3)C3CC3)c3c(cnn3C3CCOCC3)n2)CC1` [Example 72], the IC50 in experiment [1] was in the range of 1 to 100 nM; in experiment [2] it was 1000 to 10000 nM.
`CCC(CC)n1ncc2nc(-n3ccnn3)nc(N[C@@H](c3cnc4ccccc4c3)C3CC3)c21` [Example 74]: the IC50 in experiment [1] lay in the range of 1 to 100 nM; in experiment [2], 100 to 1000 nM.
For `CCC(C)n1ncc2nc(N3CCC(C(N)=O)CC3)nc(N[C@@H](c3cnc4ccccc4c3)C3CC3)c21` (stereo partly shown) [Example 75], the half-inhibitory concentration (IC50) is 1 to 100 nM in experiment [1] and 1000 to 10000 nM in experiment [2].
In the case of `CCC(C)n1ncc2nc(N3CCOC(C#N)C3)nc(N[C@@H](c3cnc4ccccc4c3)C3CC3)c21` (stereo partly shown) [Example 76], the half-maximal inhibitory concentration (IC50) in experiment [1] was 100 to 1000 nM; in experiment [2], 1000 to 10000 nM.
With `CCC(C)n1ncc2nc(-n3cncn3)nc(N[C@@H](c3cnc4ccccc4c3)C3CC3)c21` (stereo partly shown) [Example 77], the IC50 was 1 to 100 nM and 100 to 1000 nM in experiment [1]; 1000 to 10000 nM in experiment [2].
On to `CC[C@H](C)n1ncc2nc(N3CCN(C(N)=O)CC3)nc(NC(c3ccc4c(cnn4CC)c3)C3CC3)c21` (stereo partly shown) [Example 80], for which the figures for the IC50 in experiment [1] and in experiment [2] were 1 to 100 nM and 1000 to 10000 nM, respectively.
For `CC[C@H](C)n1ncc2nc(N3CCN(C(C)=O)CC3)nc(NC(CO)c3cnc4ccccc4c3)c21` (stereo partly shown) [Example 81], in that order: 1 to 100 nM and 100 to 1000 nM.
`CC[C@H](C)n1ncc2nc(N3CCN(C(C)=O)CC3)nc(NC(COC)c3cnc4ccccc4c3)c21` (stereo partly shown) [Example 82]: the 50% inhibitory concentration (IC50) fell in the range of 1 to 100 nM in experiment [1] and 1000 to 10000 nM in experiment [2].
With `CC[C@H](C)n1ncc2nc(N3CCN(C(N)=O)CC3)nc(NC(c3cnc4ccccc4n3)C3CC3)c21` (stereo partly shown) [Example 83], the IC50 in experiment [1] lay in the range of 1 to 100 nM; in experiment [2], 1000 to 10000 nM.
In the case of `CCC(C)n1ncc2nc(N3CCN(C(N)=O)CC3)nc(N[C@H](C)c3cn4ccc(C)cc4n3)c21` (stereo partly shown) [Example 84], the values for the half-inhibitory concentration (IC50) in experiment [1] and in experiment [2] were 1 to 100 nM and 1000 to 10000 nM, respectively.
For `CCC(C)n1ncc2nc(N3CCN(C(N)=O)CC3)nc(N[C@H](C)c3cnc4ccccc4c3)c21` (stereo partly shown) [Example 85], the results for the IC50 in experiment [1] and in experiment [2] were 1 to 100 nM and 100 to 1000 nM, respectively.
For `CC(C1CC1)n1ncc2nc(N3CCN(C(N)=O)CC3)nc(N[C@@H](c3cnc4ccccc4c3)C3CC3)c21` (stereo partly shown) [Example 86], in that order: 1 to 100 nM and 1 to 100 nM.
For `CCC(C)n1ncc2nc(N3CCN(C(C)=O)CC3)nc(N[C@H](C)c3cnc4ccccc4c3)c21` (stereo partly drawn) [Example 89, 1-{4-[1-sec-Butyl-7-((R)-1-quinolin-3-yl-ethylamino)-1H-pyrazolo[4,3-d]pyrimidin-5-yl]-piperazin-1-yl}-ethanone], in that order: 1 to 100 nM and 100 to 1000 nM.
As for `CCC(C)n1nc(Br)c2nc(N3CCN(C(C)=O)CC3)nc(N[C@H](C)c3cnc4ccccc4c3)c21` (stereo partly drawn) [Example 90, 1-{4-[3-Bromo-1-sec-butyl-7-((R)-1-quinolin-3-yl-ethylamino)-1H-pyrazolo[4,3-d]pyrimidin-5-yl]-piperazin-1-yl}-ethanone], the half-inhibitory concentration (IC50) in experiment [1] fell in the range of 1 to 100 nM; in experiment [2], 1000 to 10000 nM.
For the compound `CCC(C)n1nc(C#N)c2nc(N3CCN(C(C)=O)CC3)nc(N[C@H](C)c3cnc4ccccc4c3)c21` (stereo partly drawn) [Example 91, 5-(4-Acetyl-piperazin-1-yl)-1-sec-butyl-7-((R)-1-quinolin-3-yl-ethylamino)-1H-pyrazolo[4,3-d]pyrimidine-3-carbonitrile], the 50% inhibitory concentration (IC50) in experiment [1] lay in the range of 1 to 100 nM; in experiment [2], 1000 to 10000 nM.
`CCC(C)n1nc(C2CC2)c2nc(N3CCN(C(C)=O)CC3)nc(N[C@H](C)c3cnc4ccccc4c3)c21` (stereo partly drawn) [Example 93, 1-{4-[1-sec-Butyl-3-cyclopropyl-7-((R)-1-quinolin-3-yl-ethylamino)-1H-pyrazolo[4,3-d]pyrimidin-5-yl]-piperazin-1-yl}-ethanone]: the IC50 in experiment [1] lay in the range of 1 to 100 nM; in experiment [2], 1000 to 10000 nM.
For `CC(=O)N1CCN(c2nc(NC(C)c3cnc4ccccc4c3)c3nn(C(C)C)c(Br)c3n2)CC1` (stereo not shown) [Example 94], in that order: 1 to 100 nM and 1000 to 10000 nM.
For `CC(=O)N1CCN(c2nc(NC(C)c3cnc4ccccc4c3)c3nn(C(C)C)c(C)c3n2)CC1` (stereo not shown) [Example 96], in that order: 1 to 100 nM and > 10000 nM.
On to `CC(=O)N1CCN(c2nc(N[C@H](C)c3cnc4ccccc4c3)c3nn(C(C)C)c(Br)c3n2)CC1` [Example 98], for which the IC50 was in the range of 1 to 100 nM in experiment [1] and 1000 to 10000 nM in experiment [2].
As to `CC(=O)N1CCN(c2nc(N[C@H](C)c3cnc4ccccc4c3)c3nn(C(C)C)c(Cl)c3n2)CC1` [Example 99], the figures for the IC50 in experiment [1] and in experiment [2] were 1 to 100 nM and 1000 to 10000 nM, respectively.
Regarding `CC(=O)N1CCN(c2nc(N[C@H](C)c3cnc4ccccc4c3)c3c(n2)c(Br)nn3C(C)C)CC1` [Example 100], the IC50 in experiment [1] was in the range of 1 to 100 nM; in experiment [2], 1000 to 10000 nM.
As to `CC(=O)N1CCN(c2nc(NC(C)(C)Cc3ccc(Cl)cc3)c3nn(C(C)C)c(C)c3n2)CC1` [Example 101], the IC50 in experiment [1] lay within 100 to 1000 nM; in experiment [2], 1000 to 10000 nM.
